Experiments:
[1] = test system: melanoma (B16F10-Luc) cell line capable of stably expressing firefly luciferase (Luc); test: siLuc transfection by lipid nanoparticles into B16F10-Luc cells, firefly luciferase expression; assay type: cell-based; conditions: for siLuc transfection efficiency: lipid nanoparticles (lipid compound:DSPC:cholesterol:DSPE-PEG 38:10:50:2), siRNA 50 ng/well, N/P ratios 4:1, 8:1 and 16:1, 24 h after transfection
Procedure: B16F10-Luc cells were inoculated into a 96-well cell culture plate. On the next day, transfection was performed when the cells grew to about 80%.
The mother solutions were stored in a refrigerator at −20° C., diluted as needed during use, and then mixed at a molar ratio of 38:10:50:2 (lipid compounds:DSPC:cholesterol:DSPE-PEG). The siLuc was dissolved in a citrate buffer solution (pH-4), where a volume of the citrate buffer solution was two times the volume of an ethanol-lipid mixture obtained above. Finally, the citrate buffer solution containing siLuc (pH=4) and the ethanol-lipid mixture were quickly and fully mixed and then shaken and incubated at room temperature for 30 min for self-assembly to form lipid nanoparticles. The assembled lipid nanoparticles were added to the 96-well cell culture plate containing the B16F10-Luc for transfection, respectively. Before the transfection, a culture solution in the culture plate was sucked out, and 80 μL of a new culture medium was added, where an added amount of the siRNA was 50 ng/well. Nitrogen-phosphorus ratios (N/P ratio) of the protonable lipid compounds to the siRNA were 4:1, 8:1 and 16:1, respectively.
Positive control group: The siLuc was transfected by Lipo2000, a commercial transfection reagent. Transfection was performed according to an operating instruction of the Lipo2000. 50 ng of the siLuc was added to 5 μL of Opti-MEM, and 0.3 μL of the Lipo2000 was added to another 50 μL of Opti-MEM. Finally, an siRNA Opti-MEM solution was added to a Lipo2000 Opti-MEM solution, evenly mixed, incubated at room temperature for 15 min, and then added to a 96-well cell culture plate. Before the transfection, a culture solution in the culture plate was sucked out, and 80 μL of a new culture medium was added, where an added amount of the siRNA was 50 ng/well.
Negative control group: Only the B16F10-Luc cells were used without transfection.
After the transfection was performed for 24 h, the cells were lysed and subjected to centrifugation to remove cell debris and contents, a supernatant was taken, a firefly luciferase substrate was added, and an expression amount of firefly luciferase was determined so as to compare the siLuc transfection efficiency of the synthesized lipid compounds.
The mother solutions were stored in a refrigerator at −20° C., diluted as needed during use, and then mixed at a molar ratio of 38:10:50:2 (lipid compounds:DSPC:cholesterol:DSPE-PEG). The siLuc was dissolved in a citrate buffer solution (pH=4), where a volume of the citrate buffer solution was two times the volume of an ethanol-lipid mixture obtained above. […]

293T cell line = test: plasmid DNA (pDNA-GFP-Luc) transfection by lipid nanoparticles into 293T cells; assay type: cell-based; conditions: pDNA-GFP-Luc 80 ng/well, N/P ratios 8:1, 16:1 and 32:1, 48 h after transfection

SMILES | siLuc transfection efficiency [1] | inhibition of gene expression of the firefly luciferase ([1]; lipid nanoparticles with siLuc, N/P ratios 4:1 to 32:1, 24 h after transfection) | plasmid transfection efficiency (firefly luciferase expression) compared with PEI (293T cell line)
CCCCCCCCCCCC(=O)OCC(O)CN(CCCN1CCCC1)CC(O)COC(=O)CCCCCCCCCCC (centres unmarked) [A2-C12] | about 95% | – | –
CCCCCCCCCCCC(=O)OCC(O)CN(CCN(CCN(CC(O)COC(=O)CCCCCCCCCCC)CC(O)COC(=O)CCCCCCCCCCC)CCN(CC(O)COC(=O)CCCCCCCCCCC)CC(O)COC(=O)CCCCCCCCCCC)CC(O)COC(=O)CCCCCCCCCCC (centres unmarked) [A12-C12] | – | almost completely inhibited | equivalent to that of the commercial reagent PEI
CCCCCCCCCCCC(=O)OCC(O)CN(CCCN(C)C)CC(O)COC(=O)CCCCCCCCCCC (centres unmarked) [A1-C12] | about 95% | – | –
CCCCCCCCCCCCCCCC(=O)OCC(O)CN(CCCN1CCCC1)CC(O)COC(=O)CCCCCCCCCCCCCCC (centres unmarked) [A2-C16] | about 95% | – | –

— patent US20250092003A1, “LIPID COMPOUND, COMPOSITION CONTAINING SAME AND USE” (SOUTH CHINA UNIVERSITY OF TECHNOLOGY, priority 2022, published 2025)
